Data from US20130040978A1 (priority 2010, published 2013).
Structures can show the parent of a compound that is named as a salt.

What was measured:
[1] = molecular target: T1, SSTR5 (Homo sapiens, UniProt P35346); assay: SSTR5 receptor-ligand binding assay, CHO-K1 cell membranes, 125I-SRIF radioligand; parameters: expressed in transfected cells; conditions: Table 4, read-out: Bnd IC50
Description: The receptor-ligand binding assays of all 5 subtype of SSTRs were performed with membranes isolated from Chinese hamster ovary (CHO)-K1 cells stably expressing the cloned human somatostatin receptors in 96-well format as previous reported. (Yang et al. PNAS 95:10836-10841, (1998), Birzin et al. Anal. Biochem. 307:159-166, (2002)).
The stable cell lines for SSTR1-SSTR5 were developed by stably transfecting with DNA for all five SSTRs using Lipofectamine. Neomycin-resistant clones were selected and maintained in medium containing 400 μg/mL G418 (Rohrer et al. Science 282:737-740, (1998)). Binding assays were performed using (3-125I-Tyr11)-SRIF-14 or (3-125I-Tyrl 1)-SRIF-28 as the radioligand (used at 0.1 nM) and The Packard Unifilter assay plate. The assay buffer consisted of 50 mM TrisHCl (pH 7.8) with 1 mM EGTA, 5 mM MgCl2, leupeptin (10 μg/mL), pepstatin (10 μg/mL), bacitracin (200 μg/mL), and aprotinin (0.5 μg/mL). CHO-K1 cell membranes, radiolabeled somatostatin, and unlabeled test compounds were resuspended or diluted in this assay buffer. Unlabeled test compounds were examined over a range of concentrations from 0.01 nM to 10,000 nM. The Ki values for compounds were determined as described by Cheng and Prusoff Biochem Pharmacol. 22:3099-3108 (1973).

[2] = molecular target: T1, SSTR5; assay: Functional assay of inhibition of SSTR5 mediated cyclic AMP production in SSTR5 expressing CHO cells; format: cell-based, human; conditions: forskolin (FSK) plus SS-28, read-out: cAMP IC50

T1 sequence (P35346 whole entry): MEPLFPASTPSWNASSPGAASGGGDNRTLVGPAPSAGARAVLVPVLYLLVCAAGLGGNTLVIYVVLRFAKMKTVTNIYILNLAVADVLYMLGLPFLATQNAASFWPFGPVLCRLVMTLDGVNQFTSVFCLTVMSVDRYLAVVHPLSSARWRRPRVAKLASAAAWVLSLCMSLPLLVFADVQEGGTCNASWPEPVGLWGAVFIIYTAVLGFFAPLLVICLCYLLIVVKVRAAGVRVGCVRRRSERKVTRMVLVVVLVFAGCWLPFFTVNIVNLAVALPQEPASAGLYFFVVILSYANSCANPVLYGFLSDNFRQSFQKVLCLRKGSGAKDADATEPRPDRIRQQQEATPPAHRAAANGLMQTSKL

| SMILES | IC50 [1] | IC50 [2] |
| --- | --- | --- |
| CC(C)(C)n1cc(CN2CCC3(CC2)CC(c2ccc(C(=O)O)cn2)=NO3)c(-c2ccc(F)c(Cl)c2)n1 [Example 27, 6-(8-{(1-tert-Butyl-3-(3-chloro-4-fluorophenyl)-1H-pyrazol-4-yl]methyl}-1-oxa-2,8-diazaspiro[4.5]dec-2-en-3-yl)pyridine-3-carboxylic acid] | 10 nM | 8.8 nM |
| CC(C)(C)n1cc(CN2CCC3(CC2)CC(c2ccc(C(=O)O)cc2)=NO3)c(-c2ccc(F)c(Cl)c2)n1 [Example 24] | 2.3 nM | 1.8 nM |
| CC(C)n1cc(CN2CCC3(CC2)CC(c2ccc(C(=O)O)cc2)=NO3)c2cc(F)ccc21 [Example 51, 4-(8-{[5-Fluoro-1-(propan-2-yl)-1H-indol-3-yl]methyl}-1-oxa-2,8-diazaspiro[4.5]dec-2-en-3-yl)benzoic acid, TFA salt] | – | 8.32 nM |
| CC(C)n1cc(CN2CCC3(CC2)CC(c2ccc(C(=O)O)cc2)=NO3)c2c(-c3cc(F)c(F)cc3F)cccc21 [Example 41, 4-(8-{[4-(2,4,5-Trifluorophenyl)-1-(propan-2-yl)-1H-indol-3-yl]methyl}-1-oxa-2,8-diazaspiro[4.5]dec-2-en-3-yl)benzoic acid, TFA salt] | – | 0.3 nM |
| O=C(O)c1ccc(C2=NOC3(CCN(Cc4cn(C5CC5)c5c(C6CC6)cccc45)CC3)C2)cc1 [Example 50, 4-(8-{[1,7-(Dicyclopropyl)-1H-indol-3-yl]methyl}-1-oxa-2,8-diazaspiro[4.5]dec-2-en-3-yl)benzoic acid, TFA salt] | – | 13.5 nM |
| CC1(C)CC2(CC2)c2cc(CN3CCC4(CC3)CC(c3ccc(C(=O)O)cc3)=NO4)ccc2O1 [Example 95, 4-{8-[(2,2-Dimethyl-2,3-dihydrospiro[chromene-4,1′-cyclopropan]-6-yl)methyl]-1-oxa-2,8-diazaspiro[4.5]dec-2-en-3-yl}benzoic acid, TFA salt] | – | 18.7 nM |
| CC(C)n1cc(CN2CCC3(CC2)CC(c2ccc(C(=O)O)cc2)=NO3)c2c(F)c(F)c(F)c(F)c21 [Example 46, 4-(8-{[1-(propan-2-yl)-4,5,6,7-(tetrafluoro)-1H-indol-3-yl]methyl}-1-oxa-2,8-diazaspiro[4.5]dec-2-en-3-yl)benzoic acid, TFA salt] | – | 12.1 nM |
| CC(C)n1cc(CN2CCC3(CC2)CC(c2ccc(C(=O)O)cc2)=NO3)c2c(C3CC3)cccc21 [Example 47, 4-(8-{[4-(Cyclopropyl)-1-(propan-2-yl)-1H-indol-3-yl]methyl}-1-oxa-2,8-diazaspiro[4.5]dec-2-en-3-yl)benzoic acid, TFA salt] | – | 0.28 nM |
| CCOc1cc(CN2CCC3(CC2)CC(c2ccc(C(=O)O)cn2)=NO3)c(-c2ccc(F)c(F)c2F)cc1C [Example 29, 6-{8-[(4-Ethoxy-2′,3′,4′-trifluoro-5-methylbiphenyl-2-yl)methyl]-1-oxa-2,8-diazaspiro[4.5]dec-2-en-3-yl}pyridine-3-carboxylic acid] | 0.99 nM | 5.6 nM |
| CC1(C)CC2(CC2)c2cc(CN3CCC4(CC3)CC(c3ccc(C(=O)O)cc3)=NO4)cc(C3CC3)c2O1 [Example 97, 4-{8-[(8-Cyclopropyl-2,2-dimethyl-2,3-dihydrospiro[chromene-4,1′-cyclopropan]-6-yl)methyl]-1-oxa-2,8-diazaspiro[4.5]dec-2-en-3-yl}benzoic acid, TFA salt] | – | 4.05 nM |
| Cc1cccc2c(CN3CCC4(CC3)CC(c3ccc(C(=O)O)cc3)=NO4)cn(C3CC3)c12 [Example 45, 4-(8-{[7-Methyl-1-(cyclopropyl)-1H-indol-3-yl]methyl}-1-oxa-2,8-diazaspiro[4.5]dec-2-en-3-yl)benzoic acid, TFA salt] | – | 9.15 nM |
| CCOc1cc(CN2CCC3(CC2)CC(c2ccc(C(=O)O)cc2)=NO3)c(-c2nccs2)cc1C [Example 19, 4-{8-[5-Ethoxy-4-methyl-2-(1,3-thiazol-2-yl)benzyl]-1-oxa-2,8-diazaspiro[4.5]dec-2-en-3-yl}benzoic acid] | 1.5 nM | 0.94 nM |
| CCOc1cc(CN2CCC3(CC2)CC(c2ccc(C(=O)O)cc2)=NO3)ccc1-c1nccs1 [Example 18, 4-{8-[3-Ethoxy-4-(1,3-thiazol-2-yl)benzyl]-1-oxa-2,8-diazaspiro[4.5]dec-2-en-3-yl}benzoic acid] | 12 nM | 11 nM |
| CC(C)Oc1ccc(-c2ccc(F)c(F)c2)c(CN2CCC3(CC2)CC(c2ccc(C(=O)O)cc2)=NO3)c1 [Example 13, 4-(8-{[3′,4′-Difluoro-4-(propan-2-yloxy)biphenyl-2-yl]methyl}-1-oxa-2,8-diazaspiro[4.5]dec-2-en-3-yl)benzoic acid] | 2.9 nM | 2.9 nM |
| CC1(C)CC2(CC2)c2cc(CN3CCC4(CC3)CC(c3ccc(C(=O)O)cc3)=NO4)cc(Cl)c2O1 [Example 96, 4-{8-[(8-Chloro-2,2-dimethyl-2,3-dihydrospiro[chromene-4,1′-cyclopropan]-6-yl)methyl]-1-oxa-2,8-diazaspiro[4.5]dec-2-en-3-yl}benzoic acid, TFA salt] | – | 9.4 nM |
| CC(C)n1cc(CN2CCC3(CC2)CC(c2ccc(C(=O)O)cc2)=NO3)c2c(-c3ccc(F)nc3)cccc21 [Example 40, 4-(8-{[4-(6-Fluoropyridin-3-yl)-1-(propan-2-yl)-1H-indol-3-yl]methyl}-1-oxa-2,8-diazaspiro[4.5]dec-2-en-3-yl)benzoic acid, TFA salt] | – | 0.4 nM |
| CC(C)n1cc(CN2CCC3(CC2)CC(c2ccc(C(=O)O)cc2)=NO3)c2c(-c3ccc(F)cc3)ccnc21 [Example 43, 4-(8-{[4-(4-Fluorophenyl)-1-(propan-2-yl)-1H-pyrrolo[2,3-b]pyridin-3-yl]methyl}-1-oxa-2,8-diazaspiro[4.5]dec-2-en-3-yl)benzoic acid, TFA salt] | – | 2.5 nM |
| CC(C)n1cc(CN2CCC3(CC2)CC(c2ccc(C(=O)O)cc2)=NO3)c2cccc(C3CC3)c21 [Example 48, 4-(8-{[7-(Cyclopropyl)-1-(propan-2-yl)-1H-indol-3-yl]methyl}-1-oxa-2,8-diazaspiro[4.5]dec-2-en-3-yl)benzoic acid, TFA salt] | – | 3.36 nM |
| O=C(O)c1ccc(C2=NOC3(CCN(Cc4ccc(Cl)c(Br)c4)CC3)C2)cc1 [Example 70, 4-[8-(3-Bromo-4-chlorobenzyl)-1-oxa-2,8-diazaspiro[4.5]dec-2-en-3-yl]benzoic acid] | – | 26.5 nM |
| CC1(C)CCS(=O)(=O)c2c(Cl)cc(CN3CCC4(CC3)CC(c3ccc(C(=O)O)cc3)=NO4)cc21 [Example 99, 4-{8-[(8-Chloro-4,4-dimethyl-1,1-dioxido-3,4-dihydro-2H-thiochromen-6-yl)methyl]-1-oxa-2,8-diazaspiro[4.5]dec-2-en-3-yl}benzoic acid, TFA salt] | – | 472 nM |
| Cc1cccc2c(CN3CCC4(CC3)CC(c3ccc(C(=O)O)cc3)=NO4)cn(C(C)C)c12 [Example 44, 4-(8-{[7-Methyl-1-(propan-2-yl)-1H-indol-3-yl]methyl}-1-oxa-2,8-diazaspiro[4.5]dec-2-en-3-yl)benzoic acid, TFA salt] | – | 14.4 nM |
| Cc1cc(CN2CCC3(CC2)CC(c2ccc(C(=O)O)cc2)=NO3)cc2c1OC(C)(C)CC2 [Example 91, 4-{8-[(2,2,8-Trimethyl-3,4-dihydro-2H-chromen-6-yl)methyl]-1-oxa-2,8-diazaspiro[4.5]dec-2-en-3-yl}benzoic acid, TFA salt] | – | 72.7 nM |
| CC(C)n1cc(CN2CCC3(CC2)CC(c2ccc(C(=O)O)cc2)=NO3)c2c(-c3ccc(F)cc3)cccc21 [Example 39, 4-(8-{[4-(4-Fluorophenyl)-1-(propan-2-yl)-1H-indol-3-yl]methyl}-1-oxa-2,8-diazaspiro[4.5]dec-2-en-3-yl)benzoic acid, TFA salt] | – | 0.18 nM |
| CC1(C)CCOc2c(Cl)cc(CN3CCC4(CC3)CC(c3ccc(C(=O)O)cc3)=NO4)cc21 [Example 87, 4-{8-[(8-Chloro-4,4-dimethyl-3,4-dihydro-2H-chromen-6-yl)methyl]-1-oxa-2,8-diazaspiro[4.5]dec-2-en-3-yl}benzoic acid trifluoroacetate] | – | 1.5 nM |
| CC1(C)CCSc2c(C3CC3)cc(CN3CCC4(CC3)CC(c3ccc(C(=O)O)cc3)=NO4)cc21 [Example 98, 4-{8-[(8-Cyclopropyl-4,4-dimethyl-3,4-dihydro-2H-thiochromen-6-yl)methyl]-1-oxa-2,8-diazaspiro[4.5]dec-2-en-3-yl}benzoic acid, TFA salt] | – | 12.6 nM |
| Cc1cc(-c2cccnc2)c(CN2CCC3(CC2)CC(c2ccc(C(=O)O)cc2)=NO3)cc1C(F)(F)F [Example 68] | – | 13.2 nM |
| O=C(O)c1ccc(C2=NOC3(CCN(Cc4cn(C5CC5)c5ccc(C6CC6)cc45)CC3)C2)cc1 [Example 49, 4-(8-{[1,5-(Dicyclopropyl)-1H-indol-3-yl]methyl}-1-oxa-2,8-diazaspiro[4.5]dec-2-en-3-yl)benzoic acid, TFA salt] | – | 2.5 nM |
| O=C(O)c1ccc(C2=NOC3(CCN(Cc4cc(Cl)cc(C5CC5)c4)CC3)C2)cc1 [Example 85, 4-[8-(3-Chloro-5-cyclopropylbenzyl)-1-oxa-2,8-diazaspiro[4.5]dec-2-en-3-yl]benzoic acid, TFA salt] | – | 2.25 nM |
